Test results: patent US20240384250A1, “FIBROBLAST GROWTH FACTOR 23 MODULATING COMPOUNDS” (THE UAB RESEARCH FOUNDATION, priority 2021, published 2024)

Assays:
[1] = target: T1, FGF23 (Homo sapiens, UniProt Q9GZV9); assay: Plate-based binding assay, FGF23 coated, FLAG-sKL detected with anti-FLAG HRP; conditions: 2 mM glucosamine or 12.5 ng/ml tunicamycin for 48 hours
T1 construct: purchased R&D Systems 2604FG025/CF (human) or 2629FG025/CF (mouse)
Procedure: (§1) Proteins were coated on 96-well plates (MaxiSorp; 439454, Thermo Fisher Scientific), and proteins were added to wells in 100 μl of enzyme-linked immunosorbent assay (ELISA) coating buffer (E107, Bethyl Laboratories) with a lid placed overtop and incubated at 4° C. overnight. Plates were washed 5× with 350 μl of assay buffer (50 mM Tris [pH 7.4], 200 mM NaCl, 0.01% Tween 20) on a 50 TS microplate washer (BioTek). Plates were blocked for 1 hour in 200 μl of assay buffer with 0.5% BSA. Plates were washed as before, and proteins were incubated on plates in 100 μl of assay buffer with 0.5% BSA. Proteins or heparin was incubated in orders described in the respective figure legends. Assays using FLAG-tag-based detection were incubated with anti-FLAG coupled to HRP at 1:20,000, and assays using Fc detection were incubated with anti-human Fc coupled to HRP at 1:10,000. […] Reactions were stopped with ELISA stop solution (E115, Bethyl Laboratories) and analyzed using the Synergy HI plate reader (BioTek) at 450 nm wavelength. […] As a control to remove background absorbance values, wells were coated with an equal amount of BSA to match the amount of protein coated in experimental wells and treated the same as experimental wells. […]

[2] = target: T2, FGFR1c (Homo sapiens, UniProt P11362); assay: Plate-based binding assay, FGFR1c coated, FLAG-sKL detected with anti-FLAG HRP; conditions: 12.5 ng/ml tunicamycin for 48 hours
T2 construct: Fc-coupled FGFR ectodomains were immobilized on protein A/G beads; purchased R&D Systems 658FR050
Procedure: as §1

[3] = target: T3, FGF2 binding to FGFR1c (Homo sapiens, UniProt P11362); assay: Plate-based binding of paracrine FGF to Fc-FGFR1c with heparin and/or sKL; conditions: absence of sKL
T3 construct: a chimeric protein consisting of the FGFR1 ectodomain and the Fc region of a human IgG; purchased R&D Systems 233-FB/CF; 658FR050
T3 sequence (P11362 22-376 limits assumed): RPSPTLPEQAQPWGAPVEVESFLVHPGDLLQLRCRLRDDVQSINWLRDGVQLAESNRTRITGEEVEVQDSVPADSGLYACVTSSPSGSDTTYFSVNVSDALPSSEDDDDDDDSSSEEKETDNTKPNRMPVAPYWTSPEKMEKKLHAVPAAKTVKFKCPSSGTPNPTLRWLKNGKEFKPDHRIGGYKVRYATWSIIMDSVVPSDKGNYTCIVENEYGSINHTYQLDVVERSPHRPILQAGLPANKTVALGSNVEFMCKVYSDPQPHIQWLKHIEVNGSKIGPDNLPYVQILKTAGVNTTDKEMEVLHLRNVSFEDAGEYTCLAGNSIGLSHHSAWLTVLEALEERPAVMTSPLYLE
Procedure: Proteins were coated on 96-well plates (MaxiSorp; 439454, Thermo Fisher Scientific), and proteins were added to wells in 100 μl of enzyme-linked immunosorbent assay (ELISA) coating buffer (E107, Bethyl Laboratories) with a lid placed overtop and incubated at 4° C. overnight. Plates were washed 5× with 350 μl of assay buffer (50 mM Tris [pH 7.4], 200 mM NaCl, 0.01% Tween 20) on a 50 TS microplate washer (BioTek). Plates were blocked for 1 hour in 200 μl of assay buffer with 0.5% BSA. Plates were washed as before, and proteins were incubated on plates in 100 μl of assay buffer with 0.5% BSA. Proteins or heparin was incubated in orders described in the respective figure legends. Assays using FLAG-tag-based detection were incubated with anti-FLAG coupled to HRP at 1:20,000, and assays using Fc detection were incubated with anti-human Fc coupled to HRP at 1:10,000. Plates were washed as above, and 100 μl of 3,3′,5,5′-tetramethylbenzidine (TMB) substrate (E102, Bethyl Laboratories) was added for 15 to 20 minutes until positive wells developed a dark blue color. Reactions were stopped with ELISA stop solution (E115, Bethyl Laboratories) and analyzed using the Synergy HI plate reader (BioTek) at 450 nm wavelength. […] As a control to remove background absorbance values, wells were coated with an equal amount of BSA to match the amount of protein coated in experimental wells and treated the same as experimental wells. To study the effects of sKL on the binding between paracrine FGFs and FGFRs, plates were run as above except coated with paracrine FGFs. Fc-FGFR1 was preincubated with sKL or vehicle for 60 minutes, and then the combination was added to wells and the assay was run as before.

[4] = system: phosphorylated ERK in HEK293T cells; assay: ERK phosphorylation in serum-starved HEK293 cells (Western blotting); assay type: cell-based, human; conditions: FGF 1.1 nM for 10 minutes, absence of sKL
Procedure: The sample (20 μl) was loaded onto Mini-PROTEAN TGX Precast Gel 4-20% for experiments with <9 samples (4568094, Bio-Rad) or Criterion TGX Precast Gel 4-20% (5678094, Bio-Rad) for experiments with >9 samples. Gels were run in 1× Tris/Glycine/SDS buffer (1610732, Bio-Rad) at 150 V and stopped when the sample dye reached the end of the gel. Gels were removed and electrotransferred via a semi-dry cassette (1703940, Bio-Rad) in I× Tris/Glycine buffer (1610734, Bio-Rad) with 20% methanol. Gels were transferred onto polyvinylidene diflouride membranes (IPVH00010, Millipore) at 20 V for 1 hour. Membranes were then blocked in 5% dried milk with 0.5% Tween 20 diluted in Tris-buffered saline (TBST; pH 7.5) for 1 hour and probed with antibodies against specific antigens at 1:1000 in TBST with 5% dried milk. Blots were washed 3× for 5 minutes in TBST and probed with HRP-coupled secondary antibodies against specific species at 1:10,000 in TBST with 5% dried milk. Membranes were imaged on the SRX-101A X-ray film developer (Konica Minolta).
To determine the cellular activity of paracrine FGFs, the activation/phosphorylation of ERK in HEK293 cells after treatment was studied. […] Twenty microliters of samples was loaded onto 12% SDS-PAGE gels and analyzed using Western blotting for total and phosphorylated ERK.

T1 sequence (Q9GZV9 25-251, species assumed): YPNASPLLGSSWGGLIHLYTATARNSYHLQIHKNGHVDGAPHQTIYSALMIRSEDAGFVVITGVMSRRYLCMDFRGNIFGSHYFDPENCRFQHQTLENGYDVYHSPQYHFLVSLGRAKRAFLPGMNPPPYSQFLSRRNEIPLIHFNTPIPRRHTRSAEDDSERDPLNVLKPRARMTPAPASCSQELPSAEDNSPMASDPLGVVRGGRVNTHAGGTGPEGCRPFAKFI

Row | Molecule | FGF23 binding affinity of sKL in media of inhibitor-treated HEK293 cells [1] | FGFR1c binding of sKL in media of inhibitor-treated HEK293 cells [2] | FGF2 binding to FGFR1c [3] | ERK phosphorylation induced by FGF [4]
1 | tunicamycin [reference compound] | much higher FGF23 binding affinity | did not affect the FGFR1c binding |  | 
2 | FGF2: recombinant human FGF2 from R&D Systems |  |  | FGFR1c bound FGF2 | induced ERK phosphorylation
3 | N[C@H]1C(O)O[C@H](CO)[C@@H](O)[C@@H]1O (some centres unmarked) [Glucosmine, glucosamine, reference compound] | had an effect |  |  | 
